These are literature values, as cited in patent US6337320B1, “Reparatives for ultraviolet radiation skin damage” (Thione International, Inc., priority 1996, dated 2002).

For series [1] the following is noted: oral, prolonged periods.
Series [2] concerns vitamin E deficient chicks.

Turning to `[Se]` [selenium], the “dose at which selenium toxicities occur” value in series [1] is given as over 4000 micrograms per day.
On to (−)epigallo catechin gallate [EGCG], for which, in the series on human leukocytes, the hydrogen peroxide formation result is reported as “inhibits”.
For `C[Se]CC[C@H](N)C(=O)O` [selenomethionine], the “skin levels of selenium dependent glutathione peroxidase” value in the series on patients with psoriasis (normal and psoriatic skin) is on record as “unchanged”. Also, in the series on patients with psoriasis (psoriasis patients with normal pretreatment selenium blood levels), the “increase in blood levels post treatment” value is 40%. Further, the “number of CD4+T-cells” value with patients with psoriasis (reticular dermis of the psoriatic lesions) was “statistically significant increase”. Further, in the series on human subjects (eight women, topical lotion 0.002%, 0.02% and 0.05%), the “protection against acute UV damage to the skin, as measured by the minimal erythema dose” value is recorded as “effective”. Also, the “plasma levels of selenium” value in the series with human subjects (volunteers, topical application) is on record as “remained unchanged”. Also, the “in vivo lipid peroxidation in tissues” value in series [2] is “inhibits”. In the series on mice (lotion, topical vs comparable oral doses), the “concentration of selenium in skin in areas of topical application” value is given as “greater than those of the experimental animals given comparable oral doses”. In the series with mice (mice treated with selenomethionine, ultraviolet irradiation), the “skin damage by ultraviolet irradiation (inflammation, pigmentation, onset and incidence of skin cancers)” value is on record as “significantly less skin damage”. The selenium toxicity result in the series with mice (mouse, in vivo, po) is on record as “no evidence of selenium toxicity”.
